# From US20250228954A1, “Designing Antisense Oligonucleotide Delivery Peptides by Interpretable Machine Learning” (Sarepta Therapeutics, Inc., priority 2020, published 2025)
# Assays:
# HeLa 654 cells [1] = experiment: HeLa-654 eGFP assay (corrective splicing / exon skipping by PMO IVS2-654); format: cell-based, human; conditions: eGFP fluorescence of PMO-peptide conjugate relative to unconjugated PMO; 5 μM, 22 h
# Protocol: With the 36 constructs synthesized, the ability to modulate PMO activity using the modified HeLa cell assay was tested. The HeLa-654 cells were stably transfected to express a nonfluorescent eGFP protein. The eGFP gene is interrupted by a mutant intron from the human β-globin gene (IVS2-654). The insertion alters pre-mRNA splicing to cause retention of a fragment in the mature mRNA that results in a nonfluorescent protein. PMO IVS2-654 base-pairs with the B-globin insertion, modifies mRNA splicing, and thereby leads to expression of fluorescent eGFP.
# For treatment, the crude reaction mixture was diluted to 5 μM in media. The concentration of the modular construct was calculated based on the original concentration of the module 1-2 conjugate mixed in the reaction. Using media containing 10% fetal bovine serum (FBS), the cells were treated with each construct for 22 hours, after which the cellular fluorescence was measured by flow cytometry.
# From the lists of hundreds of predicted peptide sequences, twenty candidates were selected that varied in length, charge, and predicted activity to synthesize and test. Just as with the PMO-peptide library, the PMO-Mach constructs were first tested for PMO delivery in the HeLa 654 assay at 5 μM in complete media for 22 hours and analyzed by flow cytometry (FIG. 14). Experiments were conducted using three technical triplicates and two or three biological replicates.
# (§1) HeLa 654 cells were maintained in MEM supplemented with 10% (v/v) fetal bovine serum (FBS) and 1% (v/v) penicillin-streptomycin at 37° C. and 5% CO2. Eighteen hours prior to treatment, the cells were plated at a density of 5,000 cells per well in a 96-well plate in MEM supplemented with 10% FBS and 1% penicillin-streptomycin. The day of the experiment, the 384 well plate containing the crude reaction mixtures in DMSO was diluted to 100 μM by the addition of 16.8 μL of PBS to the 3.2 μL reaction mixture. Then, each construct was diluted to 5 μM in MEM supplemented with 10% FBS and 1% penicillin-streptomycin. Cells were incubated with each conjugate at a concentration of 5 μM for 22 hours at 37° C. and 5% CO2. Next, the treatment media was aspirated the cells were incubated with Trypsin-EDTA 0.25% for 15 min at 37° C. and 5% CO2, washed 1× with PBS, and resuspended in PBS with 2% FBS and 2 μg/mL propidium iodide. Flow cytometry analysis was carried out on a BD LSRII flow cytometer. Gates were applied to the data to ensure that cells that were highly positive for propidium iodide or had forward/side scatter readings that were sufficiently different from the main cell population were excluded. Each sample was capped at 5,000 gated events.
# Analysis was conducted using Graphpad Prism 7. For each sample, the mean fluorescence intensity and the number of gated cells was measured (FIGS. 8 and 9) and the intensity multiplied by the cell number was calculated (FIG. 7).
# HeLa 654 cells [2] = experiment: Cytotoxicity by gated cell count and propidium iodide staining in flow cytometry; format: cell-based, human; conditions: at the concentrations tested in dose-response, 22 h
# Excerpt: The different modules led to several noticeable trends in the level of cellular fluorescence (FIG. 6). When module 2 was DPV6, the overall construct consistently led to high fluorescence, regardless of which peptides were placed in module 3 and 4. However, when either pVEC or TP10 was placed in module 2, minor cellular fluorescence was observed. A gated cell count was used during flow cytometry as an indirect read-out to control for the toxicity of the compounds. Highly toxic compounds led to a reduction in overall cell count and non-viable cells were gated out based upon propidium iodide staining. In this experiment, it was observed that when the module 3 peptide was the nuclear localization sequence KRVK, lower cell counts were consistently observed.
# In the same format as described above, HeLa 654 cells were treated with varying concentrations of Mach 2, 3, 4, and 7 for 22 hours and analyzed by flow cytometry.
# as §1
Compound,FOLD OVER PMO (HeLa 654 cells [1]),cytotoxicity as determined by cell count and PI staining (HeLa 654 cells [2])
CSCC[C@H](NC(=O)[C@H](CCCCN)NC(=O)[C@H](CCCCN)NC(=O)[C@@H]1CCCN1C(=O)[C@H](CCC(N)=O)NC(=O)[C@@H]1CCCN1C(=O)[C@@H](NC(=O)[C@H](CCCCN)NC(=O)[C@H](CCCCN)NC(=O)[C@H](CCCCN)NC(=O)[C@@H]1CCCN1C(=O)[C@H](Cc1c[nH]c2ccccc12)NC(=O)[C@H](CCCNC(=N)N)NC(=O)[C@H](Cc1c[nH]cn1)NC(=O)[C@H](CCCCN)NC(=O)[C@H](CCCCN)NC(=O)[C@H](CCCCN)NC(=O)[C@H](CC(N)=O)NC(=O)[C@H](CCC(N)=O)NC(=O)[C@H](CCCCN)NC(=O)[C@H](CCCCN)NC(=O)CNC(=O)[C@H](CCCCN)NC(=O)[C@H](CCCCN)NC(=O)CCCCn1nnc2c1-c1ccccc1N(C(=O)CCCCC(=O)N1C[C@@H](COP(=O)(N(C)C)N3C[C@@H](COP(=O)(N(C)C)N4C[C@@H](COP(=O)(N(C)C)N5C[C@@H](COP(=O)(N(C)C)N6C[C@@H](COP(=O)(N(C)C)N7C[C@@H](COP(=O)(N(C)C)N8C[C@@H](COP(=O)(N(C)C)N9C[C@@H](COP(=O)(N(C)C)N%10C[C@@H](COP(=O)(N(C)C)N%11C[C@@H](COP(=O)(N(C)C)N%12C[C@@H](COP(=O)(N(C)C)N%13C[C@@H](COP(=O)(N(C)C)N%14C[C@@H](COP(=O)(N(C)C)N%15C[C@@H](COP(=O)(N(C)C)N%16C[C@@H](COP(=O)(N(C)C)N%17C[C@@H](COP(=O)(N(C)C)N%18C[C@@H](COP(=O)(N(C)C)N%19C[C@@H](COP(=O)(N(C)C)N%20CCN(C(=O)OCCOCCOCCO)CC%20)O[C@@H](n%20cnc%21c(=O)[nH]c(N)nc%21%20)C%19)O[C@@H](n%19ccc(N)nc%19=O)C%18)O[C@@H](n%18cc(C)c(=O)[nH]c%18=O)C%17)O[C@@H](n%17cnc%18c(N)ncnc%18%17)C%16)O[C@@H](n%16cc(C)c(=O)[nH]c%16=O)C%15)O[C@@H](n%15cc(C)c(=O)[nH]c%15=O)C%14)O[C@@H](n%14cnc%15c(N)ncnc%15%14)C%13)O[C@@H](n%13ccc(N)nc%13=O)C%12)O[C@@H](n%12ccc(N)nc%12=O)C%11)O[C@@H](n%11cc(C)c(=O)[nH]c%11=O)C%10)O[C@@H](n%10cc(C)c(=O)[nH]c%10=O)C9)O[C@@H](n9cnc%10c(N)ncnc%109)C8)O[C@@H](n8cnc9c(N)ncnc98)C7)O[C@@H](n7ccc(N)nc7=O)C6)O[C@@H](n6ccc(N)nc6=O)C5)O[C@@H](n5ccc(N)nc5=O)C4)O[C@@H](n4cnc5c(N)ncnc54)C3)O[C@@H](n3cnc4c(=O)[nH]c(N)nc43)C1)Cc1ccccc1-2)C(C)C)C(=O)N[C@@H](Cc1ccccc1)C(=O)N[C@@H](CCCCN)C(=O)N[C@@H](CCC(N)=O)C(=O)NCC(=O)N[C@@H](C)C(=O)NCCC(=O)NCCCCCC(=O)N[C@@H](CCCNC(=N)N)C(=O)NCCCCCC(N)=O (stereo partly shown) [MACH 4],25,no cytotoxicity
CSCC[C@H](NC(=O)[C@H](CCCCN)NC(=O)[C@H](CC(C)C)NC(=O)[C@H](CC(N)=O)NC(=O)[C@H](CC(N)=O)NC(=O)[C@H](CCCCN)NC(=O)[C@H](CC(C)C)NC(=O)[C@H](CC(N)=O)NC(=O)[C@H](CCCCN)NC(=O)[C@H](CCCCN)NC(=O)[C@H](CCCCN)NC(=O)[C@H](C)NC(=O)[C@H](CC(N)=O)NC(=O)[C@H](CCCNC(=N)N)NC(=O)[C@H](CC(C)C)NC(=O)[C@@H]1CCCN1C(=O)[C@@H]1CCCN1C(=O)CCCCn1nnc2c1-c1ccccc1N(C(=O)CCCCC(=O)N1C[C@@H](COP(=O)(N(C)C)N3C[C@@H](COP(=O)(N(C)C)N4C[C@@H](COP(=O)(N(C)C)N5C[C@@H](COP(=O)(N(C)C)N6C[C@@H](COP(=O)(N(C)C)N7C[C@@H](COP(=O)(N(C)C)N8C[C@@H](COP(=O)(N(C)C)N9C[C@@H](COP(=O)(N(C)C)N%10C[C@@H](COP(=O)(N(C)C)N%11C[C@@H](COP(=O)(N(C)C)N%12C[C@@H](COP(=O)(N(C)C)N%13C[C@@H](COP(=O)(N(C)C)N%14C[C@@H](COP(=O)(N(C)C)N%15C[C@@H](COP(=O)(N(C)C)N%16C[C@@H](COP(=O)(N(C)C)N%17C[C@@H](COP(=O)(N(C)C)N%18C[C@@H](COP(=O)(N(C)C)N%19C[C@@H](COP(=O)(N(C)C)N%20CCN(C(=O)OCCOCCOCCO)CC%20)O[C@@H](n%20cnc%21c(=O)[nH]c(N)nc%21%20)C%19)O[C@@H](n%19ccc(N)nc%19=O)C%18)O[C@@H](n%18cc(C)c(=O)[nH]c%18=O)C%17)O[C@@H](n%17cnc%18c(N)ncnc%18%17)C%16)O[C@@H](n%16cc(C)c(=O)[nH]c%16=O)C%15)O[C@@H](n%15cc(C)c(=O)[nH]c%15=O)C%14)O[C@@H](n%14cnc%15c(N)ncnc%15%14)C%13)O[C@@H](n%13ccc(N)nc%13=O)C%12)O[C@@H](n%12ccc(N)nc%12=O)C%11)O[C@@H](n%11cc(C)c(=O)[nH]c%11=O)C%10)O[C@@H](n%10cc(C)c(=O)[nH]c%10=O)C9)O[C@@H](n9cnc%10c(N)ncnc%109)C8)O[C@@H](n8cnc9c(N)ncnc98)C7)O[C@@H](n7ccc(N)nc7=O)C6)O[C@@H](n6ccc(N)nc6=O)C5)O[C@@H](n5ccc(N)nc5=O)C4)O[C@@H](n4cnc5c(N)ncnc54)C3)O[C@@H](n3cnc4c(=O)[nH]c(N)nc43)C1)Cc1ccccc1-2)C(=O)N[C@@H](CC(=O)O)C(=O)N1CCC[C@H]1C(=O)N[C@@H](CCCCN)C(=O)N[C@@H](Cc1ccccc1)C(=O)N[C@H](C(=O)N[C@@H](CCCCN)C(=O)N[C@@H](CCCCN)C(=O)N[C@H](C(=O)N[C@@H](CCCCN)C(=O)N[C@@H](CCC(N)=O)C(=O)NCC(=O)N[C@@H](C)C(=O)N[C@@H](CC(C)C)C(=O)N[C@@H](CCCCN)C(=O)N[C@@H](CC(C)C)C(=O)N[C@@H](CC(N)=O)C(=O)N[C@@H](CCCNC(=N)N)C(=O)N[C@@H](CCCNC(=N)N)C(=O)N[C@@H](CCCCN)C(=O)N[C@@H](CCCCN)C(=O)N[C@@H](CC(N)=O)C(=O)N[C@@H](CCCNC(=N)N)C(=O)NCC(=O)N1CCC[C@H]1C(=O)N[C@@H](CCCCN)C(=O)NCC(=O)N1CCC[C@H]1C(=O)NCCCCCC(=O)N[C@@H](CCCCN)C(=O)N[C@@H](Cc1c[nH]cn1)C(=O)N[C@@H](Cc1c[nH]c2ccccc12)C(=O)N[C@H](C(=O)N[C@H](C(N)=O)[C@@H](C)O)[C@@H](C)O)C(C)C)[C@@H](C)O (stereo partly shown) [MACH 2],27,no cytotoxicity
